Test results as given in ChEMBL document CHEMBL1156232, “Non-classical antifolates. Part 2: synthesis, biological evaluation, and molecular modeling study of some new 2,6-substituted-quinazolin-4-ones” (Bioorg Med Chem, 2010).
≈ marks a conversion by molar mass, not a printed value. Calls of active or inactive are those of the source. The calls are words filed in the database; no cut-off is given here.

What was measured:
[1] = target: T1, Dihydrofolate reductase (Bos taurus, UniProt P00376)
T1 sequence (P00376 whole entry): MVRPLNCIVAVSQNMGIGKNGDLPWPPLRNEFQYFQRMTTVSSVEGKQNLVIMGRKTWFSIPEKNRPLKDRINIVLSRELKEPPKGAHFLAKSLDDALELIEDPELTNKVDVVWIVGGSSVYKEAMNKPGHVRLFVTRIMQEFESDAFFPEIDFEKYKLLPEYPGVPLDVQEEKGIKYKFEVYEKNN
Description: Inhibition of bovine DHFR after 2 mins

[2] = tested on: Candida albicans; assay: Antifungal activity against Candida albicans after 48 hrs by microdilution susceptibility method; type: functional, organism-based
[3] = tested on: Staphylococcus aureus; assay: Antibacterial activity against Staphylococcus aureus at 200 ug/disk after 24 hrs by disk diffusion method; type: functional
[4] = tested on: Escherichia coli; assay: Antibacterial activity against Escherichia coli at 200 ug/disk after 24 hrs by disk diffusion method; type: functional; settings: for zone of inhibition at 200 µg/disc: read-out: DIZ
[5] = tested on: Candida albicans; assay: Antifungal activity against Candida albicans at 200 ug/disk after 48 hrs by disk diffusion method; type: functional, organism-based
[6] = tested on: Micrococcus luteus; assay: Antibacterial activity against Micrococcus luteus at 200 ug/disk after 24 hrs by disk diffusion method; type: functional
[7] = tested on: Pseudomonas aeruginosa; assay: Antibacterial activity against Pseudomonas aeruginosa at 200 ug/disk after 24 hrs by disk diffusion method; type: functional; settings: for zone of inhibition at 200 µg/disc: read-out: DIZ
[8] = tested on: Bacillus subtilis; assay: Antibacterial activity against Bacillus subtilis at 200 ug/disk after 24 hrs by disk diffusion method; type: functional
[9] = target: T2, Dihydrofolate reductase (Homo sapiens, UniProt P00374)
T2 sequence (P00374 whole entry): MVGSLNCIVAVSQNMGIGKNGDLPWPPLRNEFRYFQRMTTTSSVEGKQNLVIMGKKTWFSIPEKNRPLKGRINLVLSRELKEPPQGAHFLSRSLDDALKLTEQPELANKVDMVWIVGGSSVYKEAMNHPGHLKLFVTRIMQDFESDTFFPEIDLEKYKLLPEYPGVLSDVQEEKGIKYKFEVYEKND
Description: Inhibition of human DHFR after 2 mins

[10] = tested on: Escherichia coli; assay: Antibacterial activity against Escherichia coli after 24 hrs by microdilution susceptibility method; type: functional

Structure (SMILES)	IC50 [1] [µM]	Activity [2]	diameter of the inhibition zone (DIZ) [3]	zone of inhibition at 200 µg/disc [4] [mm]	Activity [5]	diameter of the inhibition zone (DIZ) [6]	zone of inhibition at 200 µg/disc [7] [mm]	zone of inhibition at 200 µg/disc ([8]; read-out: DIZ) [mm]	diameter of the inhibition zone (DIZ) [4]	diameter of the inhibition zone (DIZ) [7]	diameter of the inhibition zone (DIZ) [8]	IC50 [9] [µM]	zone of inhibition at 200 µg/disc ([3]; read-out: DIZ) [mm]	MIC [10] [µg/mL]
CCOC(=O)CCSc1nc2ccc([N+](=O)[O-])cc2c(=O)n1Cc1ccccc1	25	inactive	inactive	16	inactive	inactive	16	14	–	–	–	–	–	–
Nc1ccc2nc(SC/C=C/c3ccccc3)n(Cc3ccccc3)c(=O)c2c1	8	inactive	inactive	–	inactive	inactive	–	–	inactive	inactive	inactive	6	–	–
CSc1nc2ccc(NC/C=C/c3ccccc3)cc2c(=O)n1Cc1ccccc1	0.5	inactive	inactive	15	inactive	inactive	–	–	–	inactive	inactive	2	–	–
CSc1nc2ccc([N+](=O)[O-])cc2c(=O)n1Cc1ccccc1	30	inactive	inactive	–	inactive	inactive	–	–	inactive	inactive	inactive	–	–	–
C=CCSc1nc2ccc(N)cc2c(=O)n1Cc1ccccc1	8	inactive	inactive	–	inactive	inactive	–	–	inactive	inactive	inactive	5	–	–
C=CCSc1nc2ccc(NC(=O)C=C)cc2c(=O)n1Cc1ccccc1	10	inactive	inactive	–	inactive	inactive	–	–	inactive	inactive	inactive	–	–	–
CCSc1nc2ccc(C)cc2c(=O)n1Cc1ccccc1	35	inactive	inactive	–	inactive	inactive	–	–	inactive	inactive	inactive	–	–	–
C=CCNc1ccc2nc(SCC=C)n(Cc3ccccc3)c(=O)c2c1	0.8	inactive	inactive	–	inactive	inactive	–	–	inactive	inactive	inactive	1	–	–
C=CCN(CC=C)c1ccc2nc(SC)n(Cc3ccccc3)c(=O)c2c1	3	inactive	inactive	–	inactive	inactive	–	–	inactive	inactive	inactive	1	–	–
C=CCSc1nc2ccc([N+](=O)[O-])cc2c(=O)n1Cc1ccccc1	3	inactive	inactive	–	inactive	inactive	–	–	inactive	inactive	inactive	2	–	–
C=CCn1c(SSc2nc(=O)c3cc([N+](=O)[O-])ccc3n2CC=C)nc(=O)c2cc([N+](=O)[O-])ccc21	10	inactive	inactive	–	inactive	inactive	–	–	inactive	inactive	inactive	–	–	–
C=CCSc1nc2ccc(C)cc2c(=O)n1Cc1ccccc1	2	inactive	inactive	–	inactive	inactive	–	–	inactive	inactive	inactive	4	–	–
C=CC(=O)Nc1ccc2nc(SC/C=C/c3ccccc3)n(Cc3ccccc3)c(=O)c2c1	1	inactive	–	–	inactive	inactive	–	–	inactive	inactive	inactive	2	15	–
O=c1c2cc([N+](=O)[O-])ccc2nc(SCc2ccccc2)n1Cc1ccccc1	30	inactive	inactive	–	inactive	inactive	–	–	inactive	inactive	inactive	–	–	–
CCSc1nc2ccc([N+](=O)[O-])cc2c(=O)n1Cc1ccccc1	10	inactive	inactive	20	inactive	inactive	15	–	–	–	inactive	–	–	8 (≈ 23.4 µM)
C=CCN(C)c1ccc2nc(SC)n(Cc3ccccc3)c(=O)c2c1	1	inactive	inactive	–	inactive	inactive	–	–	inactive	inactive	inactive	2	–	–
CSc1nc2ccc(C)cc2c(=O)n1Cc1ccccc1	20	inactive	inactive	–	inactive	inactive	–	–	inactive	inactive	inactive	–	–	–
C=CCSc1nc2ccc(N(CC=C)CC=C)cc2c(=O)n1Cc1ccccc1	0.4	inactive	inactive	–	inactive	inactive	–	–	inactive	inactive	inactive	0.9	–	–
CSc1nc2ccc(N)cc2c(=O)n1Cc1ccccc1	10	inactive	inactive	–	inactive	inactive	–	–	inactive	inactive	inactive	–	–	–
C=CCNc1ccc2nc(SC)n(Cc3ccccc3)c(=O)c2c1	0.6	inactive	inactive	17	inactive	inactive	–	–	–	inactive	inactive	0.8	–	–
Cc1ccc2nc(SCc3ccccc3)n(Cc3ccccc3)c(=O)c2c1	10	inactive	inactive	–	inactive	inactive	–	–	inactive	inactive	inactive	–	–	–
Cc1ccc2nc(SC/C=C/c3ccccc3)n(Cc3ccccc3)c(=O)c2c1	0.5	inactive	inactive	–	inactive	inactive	–	–	inactive	inactive	inactive	1	–	–
C=CC(=O)Nc1ccc2nc(SC)n(Cc3ccccc3)c(=O)c2c1	50	inactive	inactive	–	inactive	inactive	–	–	inactive	inactive	inactive	–	–	–
